Measured values published in ChEMBL document CHEMBL5365464, “Structure-Based Optimization of the Third Generation Type II Macrocycle TRK Inhibitors with Improved Activity against Solvent-Front, xDFG, and Gatekeeper Mutations” (J Med Chem, 2023).

Experiments:
[1] = target: High affinity nerve growth factor receptor (Homo sapiens, UniProt P04629, G595R); test: Inhibition of TRKA G595R mutant (unknown origin) expressed in baculovirus expression system Sf9 cells using Ser/Thr 06 as peptide substrate incubated for 1 hr in presence of ATP by FRET based Z-LYTE assay
Chain of High affinity nerve growth factor receptor (Homo sapiens, UniProt P04629, G595R) (P04629 33-796 G595R limits assumed): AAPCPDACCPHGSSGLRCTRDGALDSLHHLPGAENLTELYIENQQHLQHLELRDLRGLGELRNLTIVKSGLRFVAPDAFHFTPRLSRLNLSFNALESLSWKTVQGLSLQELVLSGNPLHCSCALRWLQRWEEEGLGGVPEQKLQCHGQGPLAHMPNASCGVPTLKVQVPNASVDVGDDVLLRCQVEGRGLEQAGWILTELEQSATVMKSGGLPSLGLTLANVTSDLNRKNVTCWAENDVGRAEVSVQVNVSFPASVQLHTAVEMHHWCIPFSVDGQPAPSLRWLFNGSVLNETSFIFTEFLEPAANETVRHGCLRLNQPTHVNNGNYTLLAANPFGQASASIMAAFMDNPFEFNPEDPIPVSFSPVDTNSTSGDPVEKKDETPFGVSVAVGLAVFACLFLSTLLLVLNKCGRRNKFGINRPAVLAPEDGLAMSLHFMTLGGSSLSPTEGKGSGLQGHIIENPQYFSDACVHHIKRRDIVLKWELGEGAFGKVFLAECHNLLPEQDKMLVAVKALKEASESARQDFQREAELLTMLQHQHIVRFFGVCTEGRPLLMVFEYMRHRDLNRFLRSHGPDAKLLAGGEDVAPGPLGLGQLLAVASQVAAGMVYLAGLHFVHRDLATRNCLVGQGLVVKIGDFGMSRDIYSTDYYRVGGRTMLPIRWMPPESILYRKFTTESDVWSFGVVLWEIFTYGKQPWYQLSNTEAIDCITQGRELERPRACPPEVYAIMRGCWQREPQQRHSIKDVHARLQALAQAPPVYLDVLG

[2] = target: High affinity nerve growth factor receptor (Homo sapiens, UniProt P04629, G667C); test: Inhibition of TRKA G667C mutant (unknown origin) expressed in baculovirus expression system Sf9 cells using Ser/Thr 06 as peptide substrate incubated for 1 hr in presence of ATP by FRET based Z-LYTE assay
Chain of High affinity nerve growth factor receptor (Homo sapiens, UniProt P04629, G667C) (P04629 33-796 G667C limits assumed): as the sequence (P04629 33-796 G595R limits assumed) above, with R563G, G635C counted along it

[3] = target: High affinity nerve growth factor receptor (Homo sapiens, UniProt P04629); test: Inhibition of N-terminal hexa his tagged TRKA (485 to 795 residues) (unknown origin) expressed in baculovirus expression system Sf9 cells using Ser/Thr 06 as peptide substrate incubated for 1 hr in presence of ATP by FRET based Z-LYTE assay
Chain of High affinity nerve growth factor receptor (Homo sapiens, UniProt P04629) (P04629 whole entry, the tested form may be a part): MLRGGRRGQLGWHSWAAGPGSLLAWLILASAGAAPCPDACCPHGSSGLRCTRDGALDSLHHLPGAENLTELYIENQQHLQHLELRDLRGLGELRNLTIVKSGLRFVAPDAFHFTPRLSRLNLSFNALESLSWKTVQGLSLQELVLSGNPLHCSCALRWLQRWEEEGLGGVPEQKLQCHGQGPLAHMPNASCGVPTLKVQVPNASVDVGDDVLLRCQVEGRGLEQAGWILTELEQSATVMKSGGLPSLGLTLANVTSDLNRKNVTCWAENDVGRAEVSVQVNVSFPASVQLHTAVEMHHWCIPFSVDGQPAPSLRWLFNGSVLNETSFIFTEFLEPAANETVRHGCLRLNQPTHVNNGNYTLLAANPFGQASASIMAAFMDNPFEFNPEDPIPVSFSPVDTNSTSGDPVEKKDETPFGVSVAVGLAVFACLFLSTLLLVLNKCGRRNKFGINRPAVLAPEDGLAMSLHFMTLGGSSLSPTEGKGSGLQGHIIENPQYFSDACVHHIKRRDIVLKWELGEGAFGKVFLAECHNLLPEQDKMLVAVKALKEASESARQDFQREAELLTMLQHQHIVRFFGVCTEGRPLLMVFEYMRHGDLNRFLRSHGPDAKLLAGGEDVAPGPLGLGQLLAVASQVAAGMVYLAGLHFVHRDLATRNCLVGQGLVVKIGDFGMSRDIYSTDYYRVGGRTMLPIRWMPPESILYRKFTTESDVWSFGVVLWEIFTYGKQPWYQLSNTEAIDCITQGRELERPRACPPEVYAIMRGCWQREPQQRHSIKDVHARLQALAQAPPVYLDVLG

BaF3 [4] = test: Antiproliferative activity against mouse BaF3 cells harbouring CD74-NTRK1 fusion protein incubated for 3 days by CCK8 method; conditions: BaF3, 72 h
[5] = target: NT-3 growth factor receptor (Homo sapiens, UniProt Q16288); test: Inhibition of TRKC (unknown origin) using Ser/Thr 06 as peptide substrate incubated for 1 hr in presence of ATP by FRET based Z-LYTE assay
Chain of NT-3 growth factor receptor (Q16288 whole entry): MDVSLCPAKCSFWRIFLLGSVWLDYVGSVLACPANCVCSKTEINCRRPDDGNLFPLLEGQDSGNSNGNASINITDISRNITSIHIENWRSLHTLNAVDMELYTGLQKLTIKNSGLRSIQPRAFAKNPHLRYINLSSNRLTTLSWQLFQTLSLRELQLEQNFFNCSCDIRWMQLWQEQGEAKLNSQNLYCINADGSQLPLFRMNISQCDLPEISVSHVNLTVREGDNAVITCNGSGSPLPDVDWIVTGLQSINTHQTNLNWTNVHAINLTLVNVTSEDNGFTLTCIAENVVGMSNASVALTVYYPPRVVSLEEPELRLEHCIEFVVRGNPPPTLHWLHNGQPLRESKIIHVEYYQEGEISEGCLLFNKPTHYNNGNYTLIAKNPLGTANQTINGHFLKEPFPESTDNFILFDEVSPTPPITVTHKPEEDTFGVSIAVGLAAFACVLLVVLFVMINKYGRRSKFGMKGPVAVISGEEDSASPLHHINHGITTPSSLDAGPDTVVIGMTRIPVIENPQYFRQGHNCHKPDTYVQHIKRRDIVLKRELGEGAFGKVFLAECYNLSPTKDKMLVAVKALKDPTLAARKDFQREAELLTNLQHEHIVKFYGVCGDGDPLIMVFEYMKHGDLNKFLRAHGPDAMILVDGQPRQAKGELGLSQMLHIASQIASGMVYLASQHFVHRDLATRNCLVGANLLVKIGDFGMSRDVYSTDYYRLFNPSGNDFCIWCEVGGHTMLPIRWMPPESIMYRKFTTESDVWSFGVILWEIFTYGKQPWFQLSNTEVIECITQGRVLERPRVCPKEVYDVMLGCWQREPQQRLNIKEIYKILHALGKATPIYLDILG

BaF3 [6] = test: cells; conditions: Mus musculus, BaF3, 72 h
BaF3 [7] = test: Antiproliferative activity against mouse BaF3 cells harbouring ETV6-NTRK3 fusion protein incubated for 3 days by CCK8 method; conditions: BaF3, 72 h
BaF3 [8] = test: Antiproliferative activity against mouse BaF3 cells harbouring CD74-[…] mutant fusion protein incubated for 3 days by CCK8 method; format: functional, cell-based; conditions: BaF3, 72 h
BaF3 [9] = test: Antiproliferative activity against mouse BaF3 cells harbouring CD74-NTRK1 G595R mutant fusion protein incubated for 3 days by CCK8 method; format: functional, cell-based; conditions: BaF3, 72 h
BaF3 [10] = test: Antiproliferative activity against mouse BaF3 cells harbouring TRKA-F589L fusion protein incubated for 3 days by CCK8 method; conditions: BaF3, 72 h
BaF3 [11] = test: Antiproliferative activity against mouse BaF3 cells harbouring ETV6-TRKC G6968 mutant incubated for 3 days by CCK8 method; conditions: BaF3, 72 h
BaF3 [12] = test: Antiproliferative activity against mouse BaF3 cells harbouring CD74-TRKA G667A mutant incubated for 3 days by CCK8 method; conditions: BaF3, 72 h
BaF3 [13] = test: Antiproliferative activity against mouse BaF3 cells harbouring ETV6-TRKC G623E mutant incubated for 3 days by CCK8 method; conditions: BaF3, 72 h
BaF3 [14] = test: Antiproliferative activity against mouse BaF3 cells harbouring ETV6-TRKB F633L mutant incubated for 3 days by CCK8 method; conditions: BaF3, 72 h
BaF3 [15] = test: Antiproliferative activity against mouse BaF3 cells harbouring wild type ETV6-TRKB incubated for 3 days by CCK8 method; conditions: BaF3, 72 h
BaF3 [16] = test: Antiproliferative activity against mouse BaF3 cells harbouring ETV6-TRKC V601M mutant incubated for 3 days by CCK8 method; conditions: BaF3, 72 h
BaF3 [17] = test: Antiproliferative activity against mouse BaF3 cells harbouring ETV6-TRKC G696C mutant incubated for 3 days by CCK8 method; conditions: BaF3, 72 h
BaF3 [18] = test: Antiproliferative activity against mouse BaF3 cells harbouring ETV6-TRKC G696A mutant incubated for 3 days by CCK8 method; conditions: BaF3, 72 h
BaF3 [19] = test: Antiproliferative activity against mouse BaF3 cells harbouring ETV6-TRKB G639R mutant incubated for 3 days by CCK8 method; conditions: BaF3, 72 h
BaF3 [20] = test: Antiproliferative activity against mouse BaF3 cells harbouring CD74-TRKA V573M mutant incubated for 3 days by CCK8 method; conditions: BaF3, 72 h
BaF3 [21] = test: Antiproliferative activity against mouse BaF3 cells harbouring ETV6-TRKC G623R mutant incubated for 3 days by CCK8 method; conditions: BaF3, 72 h
BaF3 [22] = test: cells; conditions: Mus musculus, BaF3, 72 h; remark: listed apart in the source
BaF3 [23] = test: cells; conditions: Mus musculus, BaF3, 72 h; remark: listed apart in the source
BaF3 [24] = test: Antiproliferative activity against mouse BaF3 cells harbouring ETV6-TRKB G709C mutant incubated for 3 days by CCK8 method; conditions: BaF3, 72 h
BaF3 [25] = test: Antiproliferative activity against mouse BaF3 cells harbouring ETV6-TRKC F617L mutant incubated for 3 days by CCK8 method; conditions: BaF3, 72 h
BaF3 [26] = test: Antiproliferative activity against mouse BaF3 cells harbouring ETV6-TRKB V617M mutant incubated for 3 days by CCK8 method; conditions: BaF3, 72 h
BaF3 [27] = test: Antiproliferative activity against mouse BaF3 cells harbouring CD74-TRKA G6678 mutant incubated for 3 days by CCK8 method; conditions: BaF3, 72 h
BaF3 [28] = test: Antiproliferative activity against mouse BaF3 cells incubated for 3 days by CCK8 method; conditions: BaF3, 72 h

| SMILES | IC50 [1] | IC50 [2] | IC50 [3] | IC50 (BaF3 [4]) | IC50 [5] | IC50 (BaF3 [6]) | IC50 (BaF3 [7]) | IC50 (BaF3 [8]) | IC50 (BaF3 [9]) | IC50 (BaF3 [10]) | other results |
| --- | --- | --- | --- | --- | --- | --- | --- | --- | --- | --- | --- |
| Cc1c2cc(cc1C(=O)Nc1cc(CN3CCN(C)CC3)cc(C(F)(F)F)c1)OCCCCCCCNC(=O)c1ccc3ncc(n3n1)C#C2 | 54.8 nM | 3.18 nM | 15.7 nM | – | – | – | – | – | – | – | – |
| Cc1c2cc(cc1C(=O)Nc1cc(C(C)(C)C)nn1-c1ccc(Cl)cc1)OCCCCCCCNC(=O)c1ccc3ncc(n3n1)C#C2 | > 1000 nM | 14.6 nM | 164 nM | 103 nM | 13.5 nM | 10.2 nM | 70.2 nM | – | – | – | – |
| Cc1cn(-c2cc(NC(=O)c3cc4cc(c3C)C#Cc3cnc5ccc(nn35)C(=O)NCCCCCCCCO4)cc(C(F)(F)F)c2)cn1 | > 1000 nM | 7.5 nM | 63.4 nM | 59.7 nM | 27.8 nM | 8.21 nM | 32.2 nM | – | – | – | – |
| Cc1c2cc(cc1C(=O)Nc1cc(CN3CCN(C)CC3)cc(C(C)C)c1)OCCCCCCCNC(=O)c1ccc3ncc(n3n1)C#C2 | 10.7 nM | 16.8 nM | 7.85 nM | 20.5 nM | 2.83 nM | 3.85 nM | 104 nM | 18.9 nM | 42.3 nM | 32.7 nM | – |
| Cc1c2cc(cc1C(=O)Nc1cc(CN3CCN(C)CC3)cc(C(C)(C)C)c1)OCCCCCCCNC(=O)c1ccc3ncc(n3n1)C#C2 | 30.6 nM | 3.06 nM | 19 nM | 34.5 nM | 5.22 nM | 5.96 nM | 161 nM | 12.2 nM | 65.6 nM | 45.4 nM | – |
| Cc1cn(-c2cc(NC(=O)c3cc4cc(c3C)C#Cc3cnc5ccc(nn35)NCCC(=O)N(C)CCCCO4)cc(C(F)(F)F)c2)cn1 | 91.8 nM | 5.83 nM | 21.1 nM | – | – | – | – | – | – | – | – |
| C[C@H]1CNC(=O)c2cnn3ccc(nc23)N[C@H](C)c2cc(F)ccc2O1 [REPOTRECTINIB] | – | – | – | 1.39 nM | – | 15.7 nM | 1.9 nM | 3.32 nM | – | 1.61 nM | IC50 (BaF3 [11]): 4.59 nM; IC50 (BaF3 [12]): 0.88 nM; IC50 (BaF3 [13]): 5.4 nM; IC50 (BaF3 [14]): 2.15 nM; IC50 (BaF3 [15]): 0.66 nM; IC50 (BaF3 [16]): 23.1 nM; IC50 (BaF3 [17]): 17 nM; IC50 (BaF3 [18]): 1.14 nM; IC50 (BaF3 [19]): 19.3 nM; IC50 (BaF3 [20]): 12.3 nM; IC50 (BaF3 [21]): 5.75 nM; IC50 (BaF3 [22]): 78.3 nM; IC50 (BaF3 [23]): 159 nM; IC50 (BaF3 [24]): 9.44 nM; IC50 (BaF3 [25]): 0.98 nM; IC50 (BaF3 [26]): 10.8 nM; IC50 (BaF3 [27]): 8.12 nM; IC50 (BaF3 [28]): 892 nM |
| Cc1cn(-c2cc(NC(=O)c3cc4cc(c3C)C#Cc3cnc5ccc(nn35)C(=O)NCCCCCO4)cc(C(F)(F)F)c2)cn1 | > 1000 nM | 124 nM | 58.1 nM | 134 nM | 20.3 nM | 8.54 nM | 140 nM | – | – | – | – |
| Cc1c2cc(cc1C(=O)Nc1cc(CN3CCCN(C)CC3)cc(C(F)(F)F)c1)OCCCCCCCNC(=O)c1ccc3ncc(n3n1)C#C2 | 39 nM | 2.79 nM | 10.2 nM | 6.74 nM | 4.05 nM | 1.26 nM | 48.4 nM | 48.1 nM | 48.5 nM | 8.68 nM | – |
